Usually IC50 stands for the concentration that gives 50% inhibition. For orientation: EC50 means the concentration giving half of the maximal effect.

The results in this text go back to patent US12162867B2, “Inhibitors of RNA helicase DHX9 and uses thereof” (ACCENT THERAPEUTICS, INC., priority 2022, dated 2024).

What all share (type): cell-based
In one assay the test system is LS411N cells. Kind of assay: DHX9 cellular proliferation assay (CellTiter-Glo), LS411N (CRC-MSI). To be noted: Homo sapiens, LS-411N, LS411N, performed at Pharmaron, read-out: LS411N (CRC-MSI-H) Antiproliferative IC50. (In general: ATP-based viability assays read luminescence as a measure of living cells.)
A further assay deals with NCI-H747 cells. Kind of assay: DHX9 cellular proliferation assay (CellTiter-Glo), NCI-H747 (CRC-MSS). The following applies: Homo sapiens, performed at Pharmaron, read-out: H747 (CRC-MSS) Antiproliferative IC50.
For assay [1], the system named is circBRIP1 in HCT116 cells. Kind of assay: DHX9 circBRIP1 cellular target engagement SYBR Green assay (qPCR). To be noted: Homo sapiens, HCT-116, circBRIP1, HCT116 cells, read-out: DHX9 Cellular Target Engagement EC50.

Where two headings read alike, the source gives them in different places.

Consider `Cc1cc(C(=O)Nc2cc(Cl)cc(NS(C)(=O)=O)c2)cn1-c1ccc(N2CCN(C(=O)N(C)C)CC2)cn1` [Example 284], for which the IC50 with LS411N cells (CRC-MSI-H) was 161 nM; in the assay on NCI-H747 cells (NCI-H747, NCI-H747, CRC-MSS), more than 10000 nM. In addition, the EC50 in assay [1] (SyBr assay (marked ^+)) was 103 nM.
For the compound `CS(=O)(=O)Nc1cc(Cl)cc(NC(=O)c2cc(-c3ccc(F)cn3)n(CC(F)F)c2)c1` [Example 286], the IC50 is 131 nM with LS411N cells (CRC-MSI-H) and more than 10000 nM with NCI-H747 cells (NCI-H747, NCI-H747, CRC-MSS). Further, the EC50 in assay [1] (SyBr assay (marked ^+)) was determined as 2630 nM.
Turning to `CC(O)c1cc(C(=O)Nc2cc(Cl)cc(NS(C)(=O)=O)c2)cn1-c1ccccn1` (stereo not drawn) [Example 287], the IC50 in the assay with LS411N cells (CRC-MSI-H) is 165 nM; with NCI-H747 cells (NCI-H747, NCI-H747, CRC-MSS), more than 10000 nM. Besides, the EC50 in assay [1] (SyBr assay (marked ^+)) stood at 232 nM.
With `COc1cc2cc(C(=O)Nc3cc(Cl)cc(NS(C)(=O)=O)c3)sc2cc1OC` [Example 291], the IC50 was 352 nM with LS411N cells (CRC-MSI-H) and more than 10000 nM in the assay on NCI-H747 cells (NCI-H747, NCI-H747, CRC-MSS). Moreover, in assay [1] (SyBr assay (marked ^+)), the EC50 amounted to 803 nM.
For `CCOc1cnc(-c2cc(C(=O)Nc3cc(Cl)cc(NS(C)(=O)=O)c3)sc2C)nc1` [Example 335] the same measures were 52.6 nM, more than 10000 nM and 51.1 nM.
Turning to `Cc1sc(C(=O)Nc2cc(Cl)cc(NS(C)(=O)=O)c2)cc1-c1ncc(F)cn1` [Example 336], the IC50 was 146 nM in the assay on LS411N cells (CRC-MSI-H) and more than 10000 nM in the assay with NCI-H747 cells (NCI-H747, NCI-H747, CRC-MSS). Also, the EC50 in assay [1] (SyBr assay (marked ^+)) amounted to 84.6 nM.
Consider `CCOc1ccc(-c2csc(C(=O)Nc3cc(Cl)cc(NS(C)(=O)=O)c3)c2)nc1` [Example 339], for which the IC50 turned out to be 341 nM in the assay on LS411N cells (CRC-MSI-H) and 5690 nM in the assay on NCI-H747 cells (NCI-H747, NCI-H747, CRC-MSS). Moreover, in assay [1] (SyBr assay (marked ^+)), the EC50 stood at 91.8 nM.
For `COc1cnc(-c2csc(C(=O)Nc3cc(Cl)cc(NS(C)(=O)=O)c3)c2)nc1` [Example 340] the same measures were 118 nM, more than 10000 nM and 106 nM.
Take `COc1cnc(-c2cc(C(=O)Nc3cc(Cl)cc(NS(C)(=O)=O)c3)sc2C)nc1` [Example 341]: the half-maximal inhibitory concentration (IC50) is 122 nM in the assay on LS411N cells (CRC-MSI-H) and more than 10000 nM in the assay on NCI-H747 cells (NCI-H747, NCI-H747, CRC-MSS). In assay [1] (SyBr assay (marked ^+)), the EC50 was 34.6 nM.
For the compound `CCOc1cnc(-c2csc(C(=O)Nc3cc(Cl)cc(NS(C)(=O)=O)c3)c2)nc1` [Example 342], the IC50 is 133 nM with LS411N cells (CRC-MSI-H) and more than 10000 nM in the assay on NCI-H747 cells (NCI-H747, NCI-H747, CRC-MSS). Besides, the EC50 in assay [1] (SyBr assay (marked ^+)) was found to be 47.8 nM.
Take `Cc1sc(C(=O)Nc2cc(Cl)cc(NS(C)(=O)=O)c2)cc1-c1ncc(OC(F)F)cn1` [Example 345]: the IC50 came out at 362 nM in the assay with LS411N cells (CRC-MSI-H) and 8450 nM in the assay on NCI-H747 cells (NCI-H747, NCI-H747, CRC-MSS). Besides, the EC50 in assay [1] (SyBr assay (marked ^+)) came out at 108 nM.
The corresponding values for `Cc1cc(C(=O)Nc2cc(Cl)cc(NS(C)(=O)=O)c2)cn1-c1ccc(Cl)cn1` [Example 389] are 113 nM, 8040 nM and 110 nM.
Regarding `Cc1cc(C(=O)Nc2cc(Cl)cc(NS(C)(=O)=O)c2)cn1-c1ccc(F)cn1` [Example 390], the IC50 in the assay with LS411N cells (CRC-MSI-H) is 63.1 nM; with NCI-H747 cells (NCI-H747, NCI-H747, CRC-MSS), more than 10000 nM. The EC50 in assay [1] (SyBr assay (marked ^+)) was determined as 167 nM.
For `COc1ccc(-n2cc(C(=O)Nc3cc(Cl)cc(NS(C)(=O)=O)c3)cc2C)nc1` [Example 391] the same measures were 171 nM, more than 10000 nM and 63 nM.
On to `Cc1cc(C(=O)Nc2cc(Cl)cc(NS(C)(=O)=O)c2)cn1-c1ccc(N2CC(F)C2)cn1` [Example 395], for which the IC50 in the assay on LS411N cells was 117 nM; in the assay on NCI-H747 cells (NCI-H747, NCI-H747), 9220 nM. Also, the concentration for a half-maximal effect (EC50) in assay [1] (^+ SyBr assay was used) was 23.8 nM.
Take `Cc1cc(C(=O)Nc2cc(Cl)cc(NS(C)(=O)=O)c2)cn1-c1ccc(N2CCC(F)(F)C2)cn1` [Example 396]: the IC50 is 122 nM with LS411N cells and more than 10000 nM in the assay with NCI-H747 cells (NCI-H747, NCI-H747). The EC50 in assay [1] (^+ SyBr assay was used) worked out at 33 nM.
As to `Cc1cc(C(=O)Nc2cc(Cl)cc(NS(C)(=O)=O)c2)cn1-c1ccc(N2CCC2)cn1` [Example 397], the IC50 with LS411N cells was determined as 46.5 nM; in the assay on NCI-H747 cells (NCI-H747, NCI-H747) it was 6940 nM. In addition, the EC50 in assay [1] (^+ SyBr assay was used) turned out to be 26.3 nM.
For the compound `Cc1cc(C(=O)Nc2cc(Cl)cc(NS(C)(=O)=O)c2)cn1-c1ncc(N2CCC2)cn1` [Example 398], the IC50 in the assay with LS411N cells was 116 nM; in the assay with NCI-H747 cells (NCI-H747, NCI-H747), more than 10000 nM. Also, in assay [1] (^+ SyBr assay was used), the EC50 was found to be 41.1 nM.
Take `Cc1cc(C(=O)Nc2cc(Cl)cc(NS(C)(=O)=O)c2)cn1-c1ccc(N2CC(F)(F)C2)cn1` [Example 399]: the IC50 was 95.2 nM in the assay on LS411N cells and 8890 nM in the assay on NCI-H747 cells (NCI-H747, NCI-H747). In addition, the concentration for a half-maximal effect (EC50) in assay [1] (^+ SyBr assay was used) was determined as 34.4 nM.
In the case of `Cc1cc(C(=O)Nc2cc(Cl)cc(NS(C)(=O)=O)c2)cn1-c1ccc(N2CCCC2=O)cn1` [Example 410], the IC50 was 373 nM in the assay on LS411N cells and more than 10000 nM in the assay with NCI-H747 cells (NCI-H747, NCI-H747). Also, the EC50 in assay [1] (^+ SyBr assay was used) came out at 21.2 nM.
On to `Cc1cc(C(=O)Nc2cc(Cl)cc(NS(C)(=O)=O)c2)cn1-c1ccc(N2CC3CC3C2)cn1` (stereo not drawn) [Example 411], for which the IC50 in the assay on LS411N cells is 142 nM; in the assay on NCI-H747 cells (NCI-H747, NCI-H747), more than 10000 nM. Moreover, the EC50 in assay [1] (^+ SyBr assay was used) came to 74.1 nM.
For `Cc1cc(C(=O)Nc2cc(Cl)cc(NS(C)(=O)=O)c2)cn1-c1ncc(N2CC(F)(F)C2)cn1` [Example 418] the same measures were 139 nM, more than 10000 nM and 67.4 nM.
For `CN1C(=O)N(c2csc(C(=O)Nc3cc(Cl)cc(NS(C)(=O)=O)c3)c2)C(=O)C1(C)C` [Example 432] the same measures were 141 nM, more than 10000 nM and 112 nM.
Take `COc1cnn(-c2cc(C(=O)Nc3cc(Cl)cc(NS(C)(=O)=O)c3)sc2C)c1` [Example 436]: the IC50 with LS411N cells is 272 nM; in the assay on NCI-H747 cells (NCI-H747, NCI-H747) it was more than 10000 nM. Besides, the EC50 in assay [1] (^+ SyBr assay was used) came out at 89.5 nM.
The corresponding values for `CCOc1ccc(-n2cc(C(=O)Nc3cc(Cl)cc(NS(C)(=O)=O)c3)cc2C)nc1` [Example 437] are 123 nM, more than 10000 nM and 46.8 nM.
As for `CCOc1cnn(-c2cc(C(=O)Nc3cc(Cl)cc(NS(C)(=O)=O)c3)sc2C)c1` [Example 438], the IC50 in the assay with LS411N cells was 508 nM; in the assay on NCI-H747 cells (NCI-H747, NCI-H747), more than 10000 nM. In assay [1] (^+ SyBr assay was used), the EC50 worked out at 91.2 nM.
For `COc1cnc(-n2cc(C(=O)Nc3cc(Cl)cc(NS(C)(=O)=O)c3)cc2C)nc1` [Example 441] the same measures were 130 nM, more than 10000 nM and 123 nM.
For the compound `COCCOc1ccc(-n2cc(C(=O)Nc3cc(Cl)cc(NS(C)(=O)=O)c3)cc2C)nc1` [Example 442], the IC50 in the assay on LS411N cells was 123 nM; in the assay with NCI-H747 cells (NCI-H747, NCI-H747) it was more than 10000 nM. The EC50 in assay [1] (^+ SyBr assay was used) was 46 nM.
Consider `Cc1cc(C(=O)Nc2cc(Cl)cc(NS(C)(=O)=O)c2)cn1-c1ccc(C(F)(F)F)cn1` [Example 443], for which the IC50 in the assay with LS411N cells worked out at 353 nM; in the assay on NCI-H747 cells (NCI-H747, NCI-H747), 4360 nM. The EC50 in assay [1] (^+ SyBr assay was used) came to 96 nM.
For the compound `COCc1ccc(-n2cc(C(=O)Nc3cc(Cl)cc(NS(C)(=O)=O)c3)cc2C)nc1` [Example 447], the IC50 was 110 nM in the assay on LS411N cells and more than 10000 nM in the assay on NCI-H747 cells (NCI-H747, NCI-H747). Besides, the EC50 in assay [1] (^+ SyBr assay was used) worked out at 27.8 nM.
Consider `Cn1cc(C(=O)Nc2cc(Cl)cc(NS(C)(=O)=O)c2)cc1-c1ncc(N2CCCC2)cn1` [Example 520], for which the IC50 is 118 nM in the assay on LS411N cells and more than 10000 nM in the assay on NCI-H747 cells (NCI-H747, NCI-H747). Besides, in assay [1] (^+ SyBr assay was used), the EC50 worked out at 40.2 nM.
For `Cn1cc(C(=O)Nc2cc(Cl)cc(NS(C)(=O)=O)c2)cc1-c1ncc(N2CCC2)cn1` [Example 521], the IC50 was 69 nM in the assay on LS411N cells and more than 10000 nM in the assay with NCI-H747 cells (NCI-H747, NCI-H747). In addition, in assay [1] (^+ SyBr assay was used), the EC50 worked out at 35.1 nM.
`Cn1cc(C(=O)Nc2cc(Cl)cc(NS(C)(=O)=O)c2)cc1-c1ccc(N2CCC2)cn1` [Example 538]: the IC50 in the assay with LS411N cells is 124 nM; with NCI-H747 cells (NCI-H747, NCI-H747), 3620 nM. Also, the concentration for a half-maximal effect (EC50) in assay [1] (^+ SyBr assay was used) stood at 57.4 nM.
